Experiments:
[1] = refractive index (Na D-line) (dimensionless); conditions: 101.3 kPa, Liquid, Standard Abbe refractometry
[2] = 298.15 K; 101.33 kPa; Liquid; Vibrating tube method
[3] = relative permittivity at various frequencies (dimensionless); conditions: 101.3 kPa, Liquid, Frequency=0.1 MHz, Coaxial cylinder capacitor
[4] = refractive index (Na D-line) (dimensionless); xn = mol fraction of the nth substance listed; conditions: 101.3 kPa, Liquid, Standard Abbe refractometry
[5] = relative permittivity at various frequencies (dimensionless); xn = mol fraction of the nth substance listed; conditions: 101.3 kPa, Liquid, Frequency=0.1 MHz, Coaxial cylinder capacitor

OCCCCO [1,4-butanediol]
Conditions	refractive index, 298.15 K	refractive index, 308.15 K	refractive index, 318.15 K	relative permittivity, 298.15 K	relative permittivity, 308.15 K	relative permittivity, 318.15 K
[1]	1.4445	1.4417	1.4393	–	–	–
[3]	–	–	–	31.587	29.482	27.203

Conditions	mass density [kg/m3]
[2]	1013.4

OCCCCO [1,4-butanediol] + CC(C)CCO
Conditions	refractive index, 298.15 K	refractive index, 308.15 K	refractive index, 318.15 K	relative permittivity, 298.15 K	relative permittivity, 308.15 K	relative permittivity, 318.15 K
[4], x1 = 0.101	1.4088	1.4052	1.4014	–	–	–
[4], x1 = 0.2	1.4123	1.4087	1.4055	–	–	–
[4], x1 = 0.299	1.4165	1.4122	1.4093	–	–	–
[4], x1 = 0.4	1.4203	1.4166	1.4137	–	–	–
[4], x1 = 0.5	1.4244	1.4207	1.4175	–	–	–
[4], x1 = 0.6	1.4291	1.4252	1.4222	–	–	–
[4], x1 = 0.699	1.4325	1.4295	1.426	–	–	–
[4], x1 = 0.801	1.4372	1.4336	1.4309	–	–	–
[4], x1 = 0.9	1.4409	1.4376	1.4353	–	–	–
[4], x1 = 1	1.4445	1.4417	1.4393	–	–	–
[5], x1 = 0.101	–	–	–	15.856	14.411	13.099
[5], x1 = 0.2	–	–	–	16.963	15.522	14.197
[5], x1 = 0.299	–	–	–	18.26	16.765	15.4
[5], x1 = 0.4	–	–	–	19.772	18.22	16.76
[5], x1 = 0.5	–	–	–	21.409	19.78	18.225
[5], x1 = 0.6	–	–	–	23.176	21.499	19.794
[5], x1 = 0.699	–	–	–	25.066	23.351	21.52
[5], x1 = 0.801	–	–	–	27.119	25.335	23.403
[5], x1 = 0.9	–	–	–	29.28	27.371	25.287
[5], x1 = 1	–	–	–	31.587	29.482	27.203

OCCCCO [1,4-butanediol] + CCCCCO
Conditions	refractive index, 298.15 K	refractive index, 308.15 K	refractive index, 318.15 K	relative permittivity, 298.15 K	relative permittivity, 308.15 K	relative permittivity, 318.15 K
[4], x1 = 0.1	1.4118	1.4081	1.4051	–	–	–
[4], x1 = 0.2	1.4147	1.4114	1.4089	–	–	–
[4], x1 = 0.3	1.4185	1.4149	1.4119	–	–	–
[4], x1 = 0.403	1.4226	1.4193	1.4166	–	–	–
[4], x1 = 0.501	1.4256	1.4234	1.4201	–	–	–
[4], x1 = 0.601	1.4302	1.4267	1.4242	–	–	–
[4], x1 = 0.701	1.4334	1.431	1.428	–	–	–
[4], x1 = 0.8	1.4375	1.4345	1.4324	–	–	–
[4], x1 = 0.9	1.441	1.4382	1.4358	–	–	–
[4], x1 = 1	1.4445	1.4417	1.4393	–	–	–
[5], x1 = 0.1	–	–	–	16.037	14.699	13.391
[5], x1 = 0.2	–	–	–	17.171	15.827	14.452
[5], x1 = 0.3	–	–	–	18.467	17.054	15.646
[5], x1 = 0.403	–	–	–	19.924	18.471	17.026
[5], x1 = 0.501	–	–	–	21.49	19.97	18.416
[5], x1 = 0.601	–	–	–	23.245	21.632	19.971
[5], x1 = 0.701	–	–	–	25.108	23.459	21.616
[5], x1 = 0.8	–	–	–	27.105	25.339	23.393
[5], x1 = 0.9	–	–	–	29.265	27.356	25.251
[5], x1 = 1	–	–	–	31.587	29.482	27.203

C1COCCO1 [1,4-dioxane]
Conditions	refractive index, 298.15 K	refractive index, 308.15 K	refractive index, 318.15 K	relative permittivity, 298.15 K	relative permittivity, 308.15 K	relative permittivity, 318.15 K
[1]	1.4202	1.4144	1.4086	–	–	–
[3]	–	–	–	2.229	2.209	2.187

Conditions	mass density [kg/m3]
[2]	1027.86

C1COCCO1 [1,4-dioxane] + CC(C)CCO
x2 = 0
Conditions	refractive index, 298.15 K	refractive index, 308.15 K	refractive index, 318.15 K	relative permittivity, 298.15 K	relative permittivity, 308.15 K	relative permittivity, 318.15 K
[4]	1.4202	1.4144	1.4086	–	–	–
[5]	–	–	–	2.229	2.209	2.187

C1COCCO1 [1,4-dioxane] + CCCCCO
Conditions	refractive index, 298.15 K	refractive index, 308.15 K	refractive index, 318.15 K	relative permittivity, 298.15 K	relative permittivity, 308.15 K	relative permittivity, 318.15 K
[4], x2 = 0	1.4202	1.4144	1.4086	–	–	–
[4], x2 = 0.1	1.4181	1.4121	1.407	–	–	–
[4], x2 = 0.2	1.4161	1.4103	1.4055	–	–	–
[4], x2 = 0.3	1.4144	1.4088	1.4042	–	–	–
[4], x2 = 0.4	1.4128	1.4074	1.403	–	–	–
[4], x2 = 0.501	1.4114	1.4063	1.4021	–	–	–
[4], x2 = 0.599	1.4104	1.4055	1.4014	–	–	–
[4], x2 = 0.699	1.4096	1.4048	1.4008	–	–	–
[4], x2 = 0.801	1.409	1.4044	1.4004	–	–	–
[4], x2 = 0.9	1.4086	1.4042	1.4002	–	–	–
[5], x2 = 0	–	–	–	2.229	2.209	2.187
[5], x2 = 0.1	–	–	–	2.657	2.587	2.527
[5], x2 = 0.2	–	–	–	3.255	3.124	3.024
[5], x2 = 0.3	–	–	–	4.016	3.77	3.63
[5], x2 = 0.4	–	–	–	4.941	4.63	4.402
[5], x2 = 0.501	–	–	–	6.082	5.652	5.34
[5], x2 = 0.599	–	–	–	7.387	6.781	6.332
[5], x2 = 0.699	–	–	–	8.915	8.18	7.529
[5], x2 = 0.801	–	–	–	10.714	9.793	8.951
[5], x2 = 0.9	–	–	–	12.796	11.622	10.578

CC(C)CCO [3-methylbutan-1-ol]
Conditions	refractive index, 298.15 K	refractive index, 308.15 K	refractive index, 318.15 K	relative permittivity, 298.15 K	relative permittivity, 308.15 K	relative permittivity, 318.15 K
[1]	1.4048	1.4011	1.3973	–	–	–
[3]	–	–	–	14.93	13.402	12.051

Conditions	mass density [kg/m3]
[2]	807.16

CC(C)CCO [3-methylbutan-1-ol] + C1COCCO1
Conditions	refractive index, 298.15 K	refractive index, 308.15 K	refractive index, 318.15 K	relative permittivity, 298.15 K	relative permittivity, 308.15 K	relative permittivity, 318.15 K
[4], x1 = 0.1	1.4177	1.4125	1.4069	–	–	–
[4], x1 = 0.203	1.4151	1.4105	1.4054	–	–	–
[4], x1 = 0.301	1.4133	1.4088	1.4039	–	–	–
[4], x1 = 0.4	1.4114	1.4072	1.4026	–	–	–
[4], x1 = 0.5	1.4098	1.4057	1.4012	–	–	–
[4], x1 = 0.601	1.4084	1.4045	1.4001	–	–	–
[4], x1 = 0.699	1.4072	1.4034	1.3992	–	–	–
[4], x1 = 0.8	1.4063	1.4023	1.3984	–	–	–
[4], x1 = 0.899	1.4054	1.4013	1.3978	–	–	–
[4], x1 = 1	1.4048	1.4011	1.3973	–	–	–
[5], x1 = 0.1	–	–	–	2.694	2.634	2.57
[5], x1 = 0.203	–	–	–	3.292	3.168	3.055
[5], x1 = 0.301	–	–	–	4.014	3.804	3.632
[5], x1 = 0.4	–	–	–	4.91	4.629	4.376
[5], x1 = 0.5	–	–	–	6.024	5.611	5.239
[5], x1 = 0.601	–	–	–	7.327	6.743	6.232
[5], x1 = 0.699	–	–	–	8.82	8.037	7.343
[5], x1 = 0.8	–	–	–	10.64	9.655	8.702
[5], x1 = 0.899	–	–	–	12.649	11.434	10.315
[5], x1 = 1	–	–	–	14.93	13.402	12.051

CC(C)CCO [3-methylbutan-1-ol] + OCCCCO
x2 = 0
Conditions	refractive index, 298.15 K	refractive index, 308.15 K	refractive index, 318.15 K	relative permittivity, 298.15 K	relative permittivity, 308.15 K	relative permittivity, 318.15 K
[4]	1.4048	1.4011	1.3973	–	–	–
[5]	–	–	–	14.93	13.402	12.051

CCCCCO [pentan-1-ol]
Conditions	refractive index, 298.15 K	refractive index, 308.15 K	refractive index, 318.15 K	relative permittivity, 298.15 K	relative permittivity, 308.15 K	relative permittivity, 318.15 K
[1]	1.4082	1.4041	1.4001	–	–	–
[3]	–	–	–	15.11	13.72	12.391

Conditions	mass density [kg/m3]
[2]	811.1

CCCCCO [pentan-1-ol] + C1COCCO1
x1 = 1
Conditions	refractive index, 298.15 K	refractive index, 308.15 K	refractive index, 318.15 K	relative permittivity, 298.15 K	relative permittivity, 308.15 K	relative permittivity, 318.15 K
[4]	1.4082	1.4041	1.4001	–	–	–
[5]	–	–	–	15.11	13.72	12.391

CCCCCO [pentan-1-ol] + OCCCCO
x2 = 0
Conditions	refractive index, 298.15 K	refractive index, 308.15 K	refractive index, 318.15 K	relative permittivity, 298.15 K	relative permittivity, 308.15 K	relative permittivity, 318.15 K
[4]	1.4082	1.4041	1.4001	–	–	–
[5]	–	–	–	15.11	13.72	12.391

From the NIST ThermoML archive (doi:10.1016/j.jct.2015.08.021)
